Results from article PMC10651654 (Clinical and Translational Science, 2023).
Converted amounts (≈) assume the structure as drawn. Like-named read-outs stand apart in the source and are kept apart here. Values belong to the compound of their own block, whether it stands above or below them.

Tests used:
[1] = PBPK drug-drug interaction simulations; design: species or system human
CYP3A4 [2] = biological target: T1, CYP3A4 (Homo sapiens, UniProt P08684); format: in vitro ADME; conditions: percent compound remaining after 60 min in presence of NADPH
other CYP isoforms = test: In vitro metabolism of [14C]-ziritaxestat by CYP isoforms; format: in vitro ADME; conditions: human, CYP isoforms other than CYP3A4, 60 min
P-gp = P-gp (Homo sapiens, UniProt P08183); test: P-gp inhibition in P-gp-transfected cell monolayers; format: in vitro ADME
BCRP = biological target: T2, BCRP (Homo sapiens, UniProt Q9UNQ0); test: BCRP inhibition in BCRP-transfected cell monolayers; format: in vitro ADME
T2 sequence (Q9UNQ0 1-655): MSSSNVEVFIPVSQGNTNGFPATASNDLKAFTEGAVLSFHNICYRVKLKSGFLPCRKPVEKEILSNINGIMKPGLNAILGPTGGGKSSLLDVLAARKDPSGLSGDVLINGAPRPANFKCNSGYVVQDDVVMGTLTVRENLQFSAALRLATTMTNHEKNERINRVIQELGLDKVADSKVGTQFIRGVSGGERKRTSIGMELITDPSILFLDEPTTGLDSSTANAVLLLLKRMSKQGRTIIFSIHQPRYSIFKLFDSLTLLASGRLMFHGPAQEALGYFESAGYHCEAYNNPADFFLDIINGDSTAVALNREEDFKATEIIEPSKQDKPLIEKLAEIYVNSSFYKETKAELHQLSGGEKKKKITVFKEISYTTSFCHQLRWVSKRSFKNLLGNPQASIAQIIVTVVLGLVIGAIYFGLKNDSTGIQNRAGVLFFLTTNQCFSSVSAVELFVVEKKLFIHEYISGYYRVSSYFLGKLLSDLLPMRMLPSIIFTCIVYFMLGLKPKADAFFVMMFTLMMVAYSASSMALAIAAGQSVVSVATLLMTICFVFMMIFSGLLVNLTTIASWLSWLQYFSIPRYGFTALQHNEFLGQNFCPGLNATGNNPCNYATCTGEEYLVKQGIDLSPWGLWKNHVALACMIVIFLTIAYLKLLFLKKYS

CYP3A4 [3] = biological target: T1, CYP3A4; test: biochemical; format: in vitro ADME
CYP2C8 = biological target: T3, CYP2C8 (Homo sapiens, UniProt P10632); test: CYP2C8 inhibition; format: in vitro ADME
T3 sequence (P10632 1-490): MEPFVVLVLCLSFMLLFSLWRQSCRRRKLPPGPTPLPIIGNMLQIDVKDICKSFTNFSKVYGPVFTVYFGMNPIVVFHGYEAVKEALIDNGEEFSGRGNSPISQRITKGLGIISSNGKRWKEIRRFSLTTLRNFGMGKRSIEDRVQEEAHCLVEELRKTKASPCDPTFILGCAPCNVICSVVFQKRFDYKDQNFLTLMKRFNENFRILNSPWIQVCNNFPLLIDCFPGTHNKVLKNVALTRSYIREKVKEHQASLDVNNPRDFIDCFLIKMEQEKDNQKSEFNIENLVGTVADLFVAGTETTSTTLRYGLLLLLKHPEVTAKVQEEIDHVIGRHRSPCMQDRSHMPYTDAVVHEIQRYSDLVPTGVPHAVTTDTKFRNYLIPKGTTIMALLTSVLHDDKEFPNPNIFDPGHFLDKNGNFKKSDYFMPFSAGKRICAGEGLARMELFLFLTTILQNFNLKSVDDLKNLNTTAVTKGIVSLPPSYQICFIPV

CYP2C9 = CYP2C9 (Homo sapiens, UniProt P11712); test: CYP2C9 inhibition; format: in vitro ADME
OATP1B1 = biological target: T4, OATP1B1 (Homo sapiens, UniProt Q9Y6L6); test: OATP1B1 inhibition; format: in vitro ADME
T4 sequence (Q9Y6L6 1-691): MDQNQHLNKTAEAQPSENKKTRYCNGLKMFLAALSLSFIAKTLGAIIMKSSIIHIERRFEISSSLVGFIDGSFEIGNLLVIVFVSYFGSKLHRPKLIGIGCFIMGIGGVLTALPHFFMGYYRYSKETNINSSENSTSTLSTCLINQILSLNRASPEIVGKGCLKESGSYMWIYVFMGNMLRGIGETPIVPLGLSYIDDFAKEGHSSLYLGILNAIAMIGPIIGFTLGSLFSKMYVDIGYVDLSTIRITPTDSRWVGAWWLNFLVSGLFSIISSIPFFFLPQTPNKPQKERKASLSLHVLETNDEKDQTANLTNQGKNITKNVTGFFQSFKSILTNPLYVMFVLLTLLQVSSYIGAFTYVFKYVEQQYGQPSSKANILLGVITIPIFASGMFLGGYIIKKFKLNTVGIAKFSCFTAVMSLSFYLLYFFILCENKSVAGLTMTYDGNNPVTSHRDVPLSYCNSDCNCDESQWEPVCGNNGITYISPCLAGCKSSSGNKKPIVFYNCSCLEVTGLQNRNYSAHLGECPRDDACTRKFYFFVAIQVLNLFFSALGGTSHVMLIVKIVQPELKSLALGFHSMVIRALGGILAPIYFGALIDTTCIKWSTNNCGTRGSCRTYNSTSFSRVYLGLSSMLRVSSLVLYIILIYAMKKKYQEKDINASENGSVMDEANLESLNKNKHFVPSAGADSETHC

OATP1B3 = biological target: T5, OATP1B3 (Homo sapiens, UniProt Q9NPD5); test: OATP1B3 inhibition; format: in vitro ADME
T5 sequence (Q9NPD5 1-702): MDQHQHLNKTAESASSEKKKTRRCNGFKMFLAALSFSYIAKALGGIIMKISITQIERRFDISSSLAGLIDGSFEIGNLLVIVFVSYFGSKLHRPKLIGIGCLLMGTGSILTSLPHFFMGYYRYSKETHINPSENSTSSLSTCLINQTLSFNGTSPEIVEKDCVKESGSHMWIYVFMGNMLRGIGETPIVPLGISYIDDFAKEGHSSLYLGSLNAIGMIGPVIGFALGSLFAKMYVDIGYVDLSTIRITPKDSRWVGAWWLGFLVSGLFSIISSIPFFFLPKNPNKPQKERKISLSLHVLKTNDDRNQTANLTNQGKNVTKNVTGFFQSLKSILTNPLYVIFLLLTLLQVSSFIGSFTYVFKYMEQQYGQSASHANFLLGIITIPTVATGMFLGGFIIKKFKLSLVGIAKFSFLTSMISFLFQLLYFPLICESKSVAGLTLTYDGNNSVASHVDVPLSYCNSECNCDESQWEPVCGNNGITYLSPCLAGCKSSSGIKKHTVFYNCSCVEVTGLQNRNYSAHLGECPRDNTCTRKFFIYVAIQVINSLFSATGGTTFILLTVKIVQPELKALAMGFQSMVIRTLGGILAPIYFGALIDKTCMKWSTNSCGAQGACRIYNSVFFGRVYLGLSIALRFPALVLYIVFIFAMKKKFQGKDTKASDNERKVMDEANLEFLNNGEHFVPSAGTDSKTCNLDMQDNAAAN

[4] = Physicochemical input parameters
[5] = Apparent permeability in Caco-2 cells; format: in vitro ADME; conditions: human
[6] = Clinical drug-drug interaction studies; format: in vivo, human
[7] = cited from earlier work
[8] = cited from earlier work; remark: listed apart in the source
PBPK model = conditions: human, oral, 600 mg
CYP2B6 = conditions: source cell empty, row above: ref GastroPlus user manual[10]; cited from earlier work
CYP3A4 [9] = conditions: ref GastroPlus user manual[10], cited from earlier work
CYP3A4 [10] = biological target: T1, CYP3A4; conditions: data on file
[11] = cited from earlier work; remark: listed apart in the source
[12] = pravastatin probe verification, interaction with gemfibrozil (OATP1B1 inhibitor)

T1 sequence (P08684 whole entry, canonical isoform): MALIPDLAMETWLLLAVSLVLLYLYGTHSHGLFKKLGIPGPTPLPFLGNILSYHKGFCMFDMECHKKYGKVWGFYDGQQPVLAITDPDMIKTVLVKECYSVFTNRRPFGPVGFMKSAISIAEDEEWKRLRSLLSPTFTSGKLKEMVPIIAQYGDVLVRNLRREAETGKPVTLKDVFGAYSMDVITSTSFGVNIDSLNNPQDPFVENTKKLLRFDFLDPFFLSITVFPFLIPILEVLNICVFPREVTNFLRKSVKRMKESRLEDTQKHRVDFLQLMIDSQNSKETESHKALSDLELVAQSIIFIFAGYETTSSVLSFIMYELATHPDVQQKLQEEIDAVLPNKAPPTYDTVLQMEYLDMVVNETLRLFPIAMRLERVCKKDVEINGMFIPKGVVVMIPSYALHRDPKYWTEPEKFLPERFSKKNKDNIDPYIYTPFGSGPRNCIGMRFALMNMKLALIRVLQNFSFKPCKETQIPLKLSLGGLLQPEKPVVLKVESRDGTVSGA
Chain of CYP2C9 (P11712 whole entry): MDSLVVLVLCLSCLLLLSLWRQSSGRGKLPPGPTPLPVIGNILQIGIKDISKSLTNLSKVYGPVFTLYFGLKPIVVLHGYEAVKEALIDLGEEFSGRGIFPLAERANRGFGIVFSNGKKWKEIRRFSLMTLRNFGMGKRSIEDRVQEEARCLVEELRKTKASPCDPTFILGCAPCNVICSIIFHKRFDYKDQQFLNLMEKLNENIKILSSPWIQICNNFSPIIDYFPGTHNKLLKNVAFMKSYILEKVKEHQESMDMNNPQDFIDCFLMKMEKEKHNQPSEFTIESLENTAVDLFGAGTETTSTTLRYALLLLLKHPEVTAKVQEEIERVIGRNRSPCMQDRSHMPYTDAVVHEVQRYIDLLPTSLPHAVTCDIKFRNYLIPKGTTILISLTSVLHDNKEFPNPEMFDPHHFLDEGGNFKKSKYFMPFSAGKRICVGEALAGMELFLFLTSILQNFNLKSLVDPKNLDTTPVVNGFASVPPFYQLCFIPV
Chain of P-gp (P08183 whole entry): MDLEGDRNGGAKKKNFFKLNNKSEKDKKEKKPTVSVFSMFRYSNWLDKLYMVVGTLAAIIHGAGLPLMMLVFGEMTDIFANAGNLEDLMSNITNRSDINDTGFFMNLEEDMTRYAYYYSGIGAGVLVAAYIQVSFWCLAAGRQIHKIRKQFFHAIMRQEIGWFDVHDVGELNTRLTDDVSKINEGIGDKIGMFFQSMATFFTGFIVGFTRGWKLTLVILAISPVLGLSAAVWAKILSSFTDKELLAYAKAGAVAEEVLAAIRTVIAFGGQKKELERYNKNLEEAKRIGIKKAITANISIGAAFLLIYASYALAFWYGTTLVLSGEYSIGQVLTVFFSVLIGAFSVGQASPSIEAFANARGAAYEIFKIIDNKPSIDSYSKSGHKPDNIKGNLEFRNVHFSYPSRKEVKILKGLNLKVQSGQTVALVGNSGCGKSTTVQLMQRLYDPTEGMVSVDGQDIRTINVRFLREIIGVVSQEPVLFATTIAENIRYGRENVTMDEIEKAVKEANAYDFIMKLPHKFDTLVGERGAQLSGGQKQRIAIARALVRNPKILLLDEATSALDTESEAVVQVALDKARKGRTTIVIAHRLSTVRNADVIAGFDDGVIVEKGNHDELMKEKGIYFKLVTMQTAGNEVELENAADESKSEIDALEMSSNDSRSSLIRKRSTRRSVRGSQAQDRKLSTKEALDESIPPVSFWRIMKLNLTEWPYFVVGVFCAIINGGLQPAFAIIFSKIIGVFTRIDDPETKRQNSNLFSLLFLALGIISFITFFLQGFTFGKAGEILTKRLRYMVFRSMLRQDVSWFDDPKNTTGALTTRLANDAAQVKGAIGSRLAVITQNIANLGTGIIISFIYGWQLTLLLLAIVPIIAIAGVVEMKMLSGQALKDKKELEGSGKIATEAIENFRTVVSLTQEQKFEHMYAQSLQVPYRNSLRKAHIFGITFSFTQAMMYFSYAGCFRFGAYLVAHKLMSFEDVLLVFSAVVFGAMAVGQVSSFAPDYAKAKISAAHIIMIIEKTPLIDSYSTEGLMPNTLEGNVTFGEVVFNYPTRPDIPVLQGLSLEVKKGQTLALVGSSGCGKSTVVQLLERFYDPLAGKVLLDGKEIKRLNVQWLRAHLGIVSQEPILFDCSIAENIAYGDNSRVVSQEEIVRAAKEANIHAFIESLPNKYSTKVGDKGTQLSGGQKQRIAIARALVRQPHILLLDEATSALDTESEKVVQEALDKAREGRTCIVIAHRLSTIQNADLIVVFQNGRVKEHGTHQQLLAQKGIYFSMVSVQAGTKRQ

SMILES: CC(=O)N1CCN(c2ccc(OCC3COC(Cn4ccnc4)(c4ccc(Cl)cc4Cl)O3)cc2)CC1 (stereo not shown) [Ketoconazole]
observed-to-predicted AUC ratio ([1]; efavirenz verification with ketoconazole as victim): 0.90

SMILES: CCc1nc2c(C)cc(N3CCN(CC(=O)N4CC(O)C4)CC3)cn2c1N(C)c1nc(-c2ccc(F)cc2)c(C#N)s1 [Ziritaxestat, ziritaxestat]
[14C]-ziritaxestat metabolized by CYP3A4 (CYP3A4 [2]; 10 μM): 84.5% | [14C]-ziritaxestat metabolized by CYP3A4 (CYP3A4 [2]; 100 μM): 28.6% | contribution of other CYP isoforms to metabolism (maximum) (other CYP isoforms): ≤ 2.1% | IC50 (P-gp): > 40 µM | IC50 (BCRP): > 40 µM | IC50 (CYP3A4 [3]): 3.7 µM | Ki (CYP2C8): 0.753 µM | time-dependent inhibition of CYP2C8 (in words) (CYP2C8): strong | fraction unbound (CYP2C8; human): 0.52 | IC50 (CYP2C9): 13.1 µM | fraction unbound (CYP2C9; human): 0.24 | inhibitory potential for OATP1B1 (in words) (OATP1B1): weak | IC50 (OATP1B3): 7.04 µM | solubility ([4]; FaSSIF): 540 µg/mL (≈ 917 µM) | solubility ([4]; buffer, pH 7.5, aqueous buffer): 66 µg/mL (≈ 112 µM) | logD ([4]; octanol/water, pH 8.25): 3.81 | pKa ([4]; pKa1 (base)): 4.99 | pKa ([4]; pKa2 (base)): 5.89 | Papp [5]: 47 ×10⁻⁶ cm/s | classification as CYP3A4 substrate ([6]; human, in vivo): moderately sensitive CYP3A4 substrate | AUC0–∞ ratio, observed DDI ratio ([6]; ziritaxestat 600 mg SD with/without voriconazole 800 mg SD, data on file): 4.0 | fraction absorbed ([7]; 600 mg dose): at least 86% | hepatic first-pass metabolism [7]: 9% | volume of distribution at steady state from observed data, mean [SD] [7]: 23 [11] L | renal excretion of total radioactivity ([7]; single p.o. 600 mg [14C]-ziritaxestat, healthy male subjects): < 7% | mortality (in words) ([8]; 200 mg and 600 mg daily doses vs placebo): increased mortality compared with placebo | efficacy in IPF (in words) ([8]; 200 mg and 600 mg daily doses): failed to demonstrate efficacy | Papp (PBPK model): 120 ×10⁻⁶ cm/s

SMILES: O=C1Nc2ccc(Cl)cc2[C@@](C#CC2CC2)(C(F)(F)F)O1 [Efavirenz]
Emax induction CYP2B6 (CYP2B6): 5.76 | EC50 (CYP3A4 [9]; read-out: EC50 induction CYP3A4): […] | Emax induction CYP3A4 (CYP3A4 [9]): […]

Second part, led by results:

observed-to-predicted AUC ratio [1, 12]: 1.03 | observed-to-predicted Cmax ratio [1, 12]: 1.10
SMILES: CC[C@H](C)C(=O)O[C@H]1C[C@H](O)C=C2C=C[C@H](C)[C@H](CC[C@@H](O)C[C@@H](O)CC(=O)O)[C@H]21 [Pravastatin, pravastatin]

increase in nintedanib exposure with ziritaxestat ([6]; clinical DDI study, data on file): approximately two‐fold | contribution of CYP3A4 to metabolism (CYP3A4 [10]): ~ 7%
SMILES: COC(=O)c1ccc2c(c1)NC(=O)/C2=C(\Nc1ccc(N(C)C(=O)CN2CCN(C)CC2)cc1)c1ccccc1 [Nintedanib, nintedanib]
reduction of nintedanib exposure by pirfenidone [11]: 1.5 fold
